In patent publication US4731109A, “Herbicidal 2-haloacetanilides” (Monsanto Company, priority 1982, dated 1988):

Assays:
Type in all cases: in vivo
lima beans = assay: Greenhouse pre-emergence GR15/GR85 selectivity test; settings: Table XVI
Excerpt: (§1) A good grade of top soil is placed in aluminum pans and compacted to a depth of three-eighths to one-half inch from the top of the pan. On the top of the soil is placed a number of seeds or vegetative propagules of various plant species. The soil required to level fill the pans after seeding or adding vegetative propagules is weighed into a pan. The soil and a known amount of the active ingredient applied in a solvent or as a wettable powder suspension are thoroughly mixed, and used to cover the prepared pans. After treatment, the pans are given an initial overhead irrigation of eater, equivalent to one-fourth inch (0.64 cm) rainfall, then watered by subirrigation as need to give adequate moisture for germination and growth. As an alternative procedure, the overhead irrigation may be omitted. Observations are made about 2-3 weeks after seeding and treatment.
(§2) In the discussion and tables of data below, reference is made to herbicide application rates symbolized as "GR15 " and "GR85 "; these rates are given in kilograms per hectare (kg/ha) which are convertible into pounds per acre (lbs/A) by dividing the kg/ha rate by 1.12.
(§3) A further guide to the effectiveness of a chemical as a selective herbicide is the "selectivity factor" ("SF") for a herbicide in given crops and weeds. The selectivity factor is a measure of the relative degree of crop safety and weed injury and is expressed in terms of the GR15 /GR85 ratio, i.e., the GR15 rate for the crop divided by the GR85 rate for the weed, both rates in kg/ha (lb/A). In the tables below, selectivity factors are shown in parenthesis following the GR85 rate for each weed; the symbol "NS" indicates "non-selective". Marginal or undetermined selectivity is indicated by a dash (--).
(§4) Additionally, pre-emergence herbicidal data from other tests have established that compounds according to this invention also selectively suppress quackgrass, yellow nutsedge and/or other weeds in one or more of the crops cotton, peanuts, bush beans and/or rape. For example, in Table VI are presented data showing the herbicidal selectivity of the compounds of Examples 1 and 2 against quackgrass in rape and snap beans. Unless otherwise noted; greenhouse tests in Table VI and in other tables below involved herbicide treatments by soil incorporation and an initial overhead irrigation followed by subirrigation as described above.
(§5) Additional greenhouse tests were made to test certain compounds of this invention against a plurality of problem weeds in peanuts and lima beans; except for fall panicum, the test weeds are particularly resistant weeds; the test data is set forth in Table XVI.
(§6) In Table XVI, the selectivity factors for the test compounds for each weed in lima beans is shown as the first or upper value in parenthesis and the selectivity factors for each weed in peanuts is shown as the second or lower value in parenthesis for each compound. For example, the selectivity factor for the compound of Example 3 for seedling johnsongrass in lima beans is 2.1 and in peanuts, >4.9; the selectivity factor for Texas panicum in lima beans is 1.1 and in peanuts, >2.6, etc.

peanuts = assay: as above; settings: Table XVI
Excerpt: as §1, §2, §3, §4, §5, §6

Yellow Nutsedge = assay: as above
Excerpt: as §1, with “After treatment, the pans are given an initial overhead irrigation of eater, equivalent to one-fourth inch (0.64 cm) rainfall, then watered by subirrigation as need to give adequate moisture for germination and growth.” left out
as §3
(§7) These weeds are commonly associated with such major crops as corn and soybeans. […] The test procedure was the same as described for Tables II and III but modified by the application of an initial overhead irrigation equivalent to 1/4" (0.64 cm) rainfall; subsequent watering was accomplished by subirrigation. "NS" means non-selective within the test limits.
(§8) Unless otherwise noted; greenhouse tests in Table VI and in other tables below involved herbicide treatments by soil incorporation and an initial overhead irrigation followed by subirrigation as described above.

Quackgrass = assay: as above
Excerpt: as §1, with “After treatment, the pans are given an initial overhead irrigation of eater, equivalent to one-fourth inch (0.64 cm) rainfall, then watered by subirrigation as need to give adequate moisture for germination and growth.” left out
as §3, §7, §8

common ragweed = assay: as above; settings: Table XV
In short: (§9)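 Pre-emergence soil-incorporation test: seeded pans were covered with topsoil mixed with active ingredient (in solvent or as wettable powder), overhead-irrigated (0.64 cm) or not, then subirrigated. Plants were scored about 2-3 weeks after treatment. GR15/GR85 rates are in kg/ha, and selectivity factor is crop GR15 divided by weed GR85.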

prickly sida = assay: as above; settings: Table XV
In short: as §9

common purslane = assay: as above; settings: Table XV
In short: as §9

redroot pigweed = assay: as above; settings: Table XV; for selectivity factor (GR15/GR85): in rape
In short: as §9

soybeans = assay: Herbicidal effect in a variety of soil types; settings: Table XVII C
cotton = assay: Greenhouse pre-emergence GR15/GR85 selectivity test
Excerpt: as §1, §2, §3, §4
In one multi-crop test in the greenhouse, the compounds of Examples 1, 9, and 10 were tested against yellow nutsedge in cotton, soybeans, corn and rice; each compound was non-selective with respect to yellow nutsedge in rice. However, markedly high selectivities for yellow nutsedge in cotton, soybeans and corn were shown for each of the compounds in the test; the respective GR15 and GR85 rates for these compounds are shown in Table XII selectivity factors are shown in parenthesis after each crop.

[1] = yellow nutsedge in corn, Table XII
[2] = yellow nutsedge in cotton, Table XII
[3] = yellow nutsedge in soybeans, Table XII
[4] = quackgrass in soybeans, Table XIII

SMILES | GR15 Rate (lima beans) | GR15 Rate (peanuts) | GR85 (Yellow Nutsedge; Table XII) | selectivity with respect to yellow nutsedge in rice (Yellow Nutsedge) | selectivity factor (GR15/GR85) (Yellow Nutsedge; [1]) | selectivity factor (GR15/GR85) (Yellow Nutsedge; [2]) | selectivity factor (GR15/GR85) (Yellow Nutsedge; [3]) | GR85 (Quackgrass; Table XIII) | selectivity against quackgrass in wheat (Quackgrass) | selectivity factor (GR15/GR85) (Quackgrass; quackgrass in corn, Table XIII) | selectivity factor (GR15/GR85) (Quackgrass; [4]) | GR85 Rate (common ragweed) | GR85 Rate (prickly sida) | GR85 Rate (common purslane) | GR85 Rate (redroot pigweed) | selectivity factor (GR15/GR85) (redroot pigweed) | GR15 (cotton; Table XII) | other results
CCOCN(C(=O)CCl)c1c(CC)cccc1C(F)(F)F [Example 9, N--(ethoxymethyl)-2'-trifluoromethyl-6'-ethyl-2-chloroacetanilide] | 0.75 Kg/Ha | 0.90 Kg/Ha | 0.21 Kg/Ha | non-selective | 12 | 12 | 9.5 | 0.36 Kg/Ha | non-selective | 4.7 | 4.7 | > 1.12 Kg/Ha | > 1.12 Kg/Ha | 0.78 Kg/Ha | 0.70 Kg/Ha | 1.4 | 2.5 Kg/Ha | GR85 (Yellow Nutsedge; Table IV, Replicate #2): 0.17 Kg/Ha; GR85 (Yellow Nutsedge; in cotton): 0.47 kg/ha; S.F. (GR15/GR85) (Yellow Nutsedge; in cotton): 1.5; selectivity factor (GR15/GR85) (Yellow Nutsedge; yellow nutsedge in corn, Table IV, Replicate #2): 13; selectivity factor (GR15/GR85) (Yellow Nutsedge; yellow nutsedge in soybeans, Table IV, Replicate #2): 12.5; GR85 (Quackgrass; Table IV, Replicate #2): 0.20 Kg/Ha; selectivity factor (GR15/GR85) (Quackgrass; quackgrass in corn, Table IV, Replicate #2): 11; selectivity factor (GR15/GR85) (Quackgrass; quackgrass in soybeans, Table IV, Replicate #2): 10.5; selectivity factor (GR15/GR85) (common ragweed; in rape): NS (non-selective); selectivity factor (GR15/GR85) (prickly sida; in rape): NS (non-selective); selectivity factor (GR15/GR85) (common purslane; in rape): 1.3; GR15 (soybeans; Drummer silty clay): > 2.2 Kg/Ha; GR15 (soybeans; Florida muck): > 2.2 Kg/Ha; GR15 (soybeans; Ray silt loam): > 2.2 Kg/Ha; GR15 (soybeans; Sarpy silty clay): > 2.2 Kg/Ha; GR15 (soybeans; Wabash silty clay): 3.0 Kg/Ha; GR15 (cotton; cotton/yellow nutsedge): 0.7 kg/ha
CCCOCN(C(=O)CCl)c1c(CC)cccc1C(F)(F)F [Example 10, N--(n-propoxymethyl)-2'-trifluoromethyl-6'-ethyl-2-chloroacetanilide] | > 1.12 Kg/Ha | 0.98 Kg/Ha | 0.38 Kg/Ha | non-selective | 4.5 | 7.4 | 5.8 | 0.45 Kg/Ha | non-selective | 5.6 | 3.3 | > 1.12 Kg/Ha | > 1.12 Kg/Ha | > 1.12 Kg/Ha | 0.70 Kg/Ha | > 1.6 | 2.8 Kg/Ha | –
